Test results reported in patent publication US20230220206A1, “REJUVENATING AGENTS FOR ASPHALT RECYCLING” (BASF SE, priority 2020, published 2023).
Where two headings read alike, the source gives them in different places.

Columns and labels:
[1] = MSCR test, percentage elastic recovery; format: physicochemical; settings: bitumen 20/30 + 5% compound
[2] = bitumen 20/30 + 5% compound
[3] = Softening point ring & ball of rejuvenated bitumen; settings: bitumen 20/30 rejuvenated with 5% of the compound, 180° C., 30 minutes
[4] = labelling of the product itself; — = none; cited from earlier work
[5] = format: physicochemical; settings: Olexobit 45 + 5% compound
[6] = MSCR elastic recovery of rejuvenated aged bitumen; format: physicochemical; settings: aged bitumen 50/70 PCK Schwedt + 5% compound
[7] = Softening point of rejuvenated polymer-modified bitumen; format: physicochemical; settings: Olexobit 45 + 5% compound
[8] = BBR of rejuvenated polymer-modified bitumen; format: physicochemical; settings: Olexobit 45 + 5% compound
Protocol: (§1) Different bitumen samples were rejuvenated as in Example 1, and the BBR values S (flexural creep stiffness) and m […] were evaluated at −16° C. The results were compared to the not rejuvenated bitumen sample as well as to the bitumen rejuvenated with the benchmark RheoFalt® HP-AM (Comp. 1.3).

[9] = Low temperature performance, bending beam rheometer (BBR) at −16° C.; format: physicochemical
Protocol: as §1

[10] = MSCR elastic recovery of rejuvenated aged bitumen; format: physicochemical; settings: aged bitumen 50/70 BP + 5% compound
[11] = format: physicochemical; settings: bitumen extracted from RAP + 5% compound
[12] = MSCR elastic recovery of rejuvenated polymer-modified bitumen; format: physicochemical; settings: Olexobit 45 + 5% compound
[13] = format: physicochemical; settings: aged bitumen 50/70 BP + 5% compound
[14] = Softening point of rejuvenated RAP bitumen; format: physicochemical; settings: bitumen extracted from RAP + 5% compound
[15] = Softening point of rejuvenated aged bitumen; format: physicochemical; settings: aged bitumen 50/70 PCK Schwedt + 5% compound
[16] = Softening point of rejuvenated aged bitumen; format: physicochemical; settings: aged bitumen 50/70 BP + 5% compound
[17] = MSCR elastic recovery of rejuvenated RAP bitumen; format: physicochemical; settings: bitumen extracted from RAP + 5% compound
[18] = Ageing index (RTFOT ageing) of rejuvenated polymer-modified bitumen; format: physicochemical; settings: Olexobit 45 + 5% compound; viscosity after ageing divided by viscosity before ageing
Excerpt: (§2) Herewith, it will be shown that the positive effects of the here claimed rejuvenating agents can also be applied to PmB, in this case Olexobit 45. Olexobit 45 was therefore rejuvenated according to the procedure of Example 1.

[19] = Loss tangent from DSR frequency sweep at 60° C.; format: physicochemical
Excerpt: In addition, it could be shown that additives according to the present invention perform most of the times better than the common benchmarks according to the standard testing techniques for the low, mid and high temperature range. What cannot be extracted from these measurements however is an indication of the working mechanism.

[20] = Force ductility of rejuvenated polymer-modified bitumen; format: physicochemical; settings: Olexobit 45 + 5% compound
Excerpt: as §2

[21] = format: physicochemical; settings: aged bitumen 50/70 PCK Schwedt + 5% compound
[22] = TD NMR relaxation time measurements (SE-CPMG, multicomponent fitting); format: physicochemical; settings: for 1/<1/T2e>: harmonic average relaxation time of the mobile components
Excerpt: TD NMR, also known as NMR relaxometry, is a known NMR technique and relies on measuring the relaxation times of the nuclear spin system instead of frequency-domain spectra. […] Also, sample preparation is much simpler as there are no concerns about sample homogeneity and no solvents are needed.
Like that, a clear distinction between protons in a solid, amorphous and liquid component can be made with good accuracy.
Bitumen 20/30 was rejuvenated with some of the here claimed rejuvenating agents according to example 1. The pure bitumen 20/30 as well as the rejuvenated bitumen 20/30 samples were then analyzed by TD NMR. To do so, all samples were heated up to 80° C. to allow filling of the samples into NMR tubes. After that, TD NMR measurements at 30° C., 80° C. and 140° C. were conducted using the SE-CMPG sequence. This sequence consists of a solid echo combined with a so-called CPMG (Carr-Purcell-Meiboom-Gill) train of subsequent spin echoes with alternating phase and is capable of recording the decay of coherence in the transverse nuclear magnetization over about 5 orders of magnitude in time. Depending on the measurement temperature, the experimental data were then fitted with semi-empirically selected multicomponent models involving several Gaussian and exponential components:
S(t)=[pg1 exp(−(t/T2g1)^2)+pg2 exp(−(t/T2g2)^2)]+pe1 exp(−t/T2e1)[pe2 exp(−t/T2e2)+pe3 exp(−t/T2e3)]
In order to assess the effect of temperature on the molecular mobility of the bitumen, experiments were conducted at temperatures of 30° C., 80° C. and 140° C., and the following models turned out to provide adequate fits of the respective normalized signal decay curves: • two Gaussians and one exponential at 30° C., • two Gaussians and two exponentials at 80° C., • three exponentials at 140° C.
From the fitting, different values can be obtained: • The p values (pg1, pg2, pe1, pe2 and pe3), indicating the signal fraction of the individual component scaled in the range from 0 to 1 • The T2 values (T2g1, T2g2, T2e1, T2e2 and T2e3), indicating the relaxation times that correspond to each of the individual components. The longer the relaxation time, the higher the molecular mobility of the respective component • In addition to the values T2e1, T2e2 and T2e3, we also calculated the average relaxation time of the mobile components, 1/<1/T2e>, for the temperatures at which more than one mobile component exist (80 and 140° C.). 1/<1/T2e> Is calculated as the harmonic average of the relaxation times involved:
[formula] • The type of the component, those being: • g1: the rigid component • g2: the partially mobile component • e1, e2 and e3: mobile components with increasingly high local molecular mobilities
It is believed that the rigid component g1 is directly correlated with the amount of the asphaltene aggregates. The mobile component(s) on the other hand can be attributed to the maltene phase.

[23] = aged bitumen 50/70 BP + 5% compound, lowest frequency
[24] = aged bitumen 50/70 PCK Schwedt + 5% compound, lowest frequency
[25] = bitumen 20/30 + 5% compound, lowest frequency (0.01 rad/s)
[26] = bitumen extracted from RAP + 5% compound, lowest frequency
[27] = 30° C., bitumen 20/30 + additive
[28] = 80° C., bitumen 20/30 + additive
[29] = 140° C., bitumen 20/30 + additive
[30] = aged bitumen 50/70 BP + 5% compound

## CC(C)CCCCCCOC(=O)c1ccccc1C(=O)OCCCCCCC(C)C [Palatinol ® DINP, diisononyl phthalate]
[1]
  MSCR % Rec. (0.1 kPa): 9%
  MSCR % Rec. (1.6 kPa): 3%
  MSCR % Rec. (3.2 kPa): 1%
[2]
  η(135° C.) [mPas]: 950 mPas
[3]
  SP [° C.] (softening point): 52.0 °C

## CC(C)(COCC1CO1)COCC1CO1 (stereo not drawn) [Neopentylglycol bis glycidylether]
[4]
  tox (toxicology/eco toxicology): Irritating
[1]
  MSCR % Rec. (0.1 kPa): 11%
  MSCR % Rec. (1.6 kPa): 5%
  MSCR % Rec. (3.2 kPa): 2%
[2]
  η(135° C.) [mPas]: 1,050 mPas
[3]
  SP [° C.] (softening point): 52.0 °C

## CC(COCC1CO1)(COCC1CO1)c1ccccc1 (stereo not drawn) [2-Methyl-2-phenyl-1,3-propandiol bis glycidylether]
[1]
  MSCR % Rec. (0.1 kPa): 8%
  MSCR % Rec. (1.6 kPa): 3%
  MSCR % Rec. (3.2 kPa): 1%
[2]
  η(135° C.) [mPas]: 900 mPas
[3]
  SP [° C.] (softening point): 52.0 °C

## CC(C)CCCCCCOC(=O)C1CCCCC1C(=O)OCCCCCCC(C)C (stereo not drawn) [Hexamoll ® DINCH, diisononyl cyclohexane-1,2-dicarboxylate]
[5]
  η(135° C.) [mPas]: 700 mPas
[6]
  MSCR % Rec. (0.1 kPa): 11%
  MSCR % Rec. (1.6 kPa): 7%
  MSCR % Rec. (3.2 kPa): 3%
[7]
  SP [° C.]: 49.0 °C
[1]
  MSCR % Rec. (0.1 kPa): 10%
  MSCR % Rec. (1.6 kPa): 4%
  MSCR % Rec. (3.2 kPa): 1%
[8]
  BBR S-value [MPa]: 80 MPa
  BBR m-value: 0.43
[9]; bitumen 20/30 + 5% compound
  S-value [MPa] (flexural creep stiffness): 90 MPa
  m-value: 0.41
[10]
  MSCR % Rec. (0.1 kPa): 14%
  MSCR % Rec. (1.6 kPa): 10%
  MSCR % Rec. (3.2 kPa): 5%
[11]
  η(135° C.) [mPas]: 1,200 mPas
[12]; 0.1 kPa
  MSCR % Rec. (0.1 kPa): 19%
[12]; 1.6 kPa
  MSCR % Rec. (1.6 kPa): 7%
[12]; 3.2 kPa
  MSCR % Rec. (3.2 kPa): 4%
[13]
  η(135° C.) [mPas]: 1,000 mPas
[14]
  SP [° C.]: 59.0 °C
[15]
  SP [° C.]: 56.0 °C
[16]
  SP [° C.]: 56.5 °C
[2]
  η(135° C.) [mPas]: 950 mPas
[3]
  SP [° C.] (softening point): 52.0 °C
[17]
  MSCR % Rec. (0.1 kPa): 16%
  MSCR % Rec. (1.6 kPa): 12%
  MSCR % Rec. (3.2 kPa): 7%
[18]
  AI (ageing index): 2.1
[19]; [23]
  tan δ: 35
[19]; [24]
  tan δ: 40
[19]; [25]
  tan δ: 45
[19]; [26]
  tan δ: 25
[20]
  Force Ductility Fmax [N]: 12 N
  Force Ductility W [J/cm^2]: 1.0 J/cm^2
[21]
  η(135° C.) [mPas]: 1,000 mPas

## Polyethylenglycol bis glycidylether
[1]
  MSCR % Rec. (0.1 kPa): 16%
  MSCR % Rec. (1.6 kPa): 10%
  MSCR % Rec. (3.2 kPa): 5%
[2]
  η(135° C.) [mPas]: 1,000 mPas
[3]
  SP [° C.] (softening point): 57.0 °C

## Dodecenyl succinic acid anhydride
[2]
  η(135° C.) [mPas]: 950 mPas

## CCCCCCCCCCCCc1ccc(S(=O)(=O)O)cc1 [Dodecylbenzene sulfonic acid]
[4]
  tox (toxicology/eco toxicology): Harmful
[1]
  MSCR % Rec. (0.1 kPa): 27%
  MSCR % Rec. (1.6 kPa): 25%
  MSCR % Rec. (3.2 kPa): 21%
[2]
  η(135° C.) [mPas]: 2,100 mPas
[3]
  SP [° C.] (softening point): 64.0 °C

## CCCCCCCCCCCCN1CCCC1=O [N-Dodecyl pyrrolidone]
[22]; [27]
  T2e1: 0.20 ms
  T2g1: 0.016 ms
  T2g2: 0.045 ms
[22]; 30° C., mobile component, bitumen 20/30 + additive
  pe1: 0.44
[22]; 30° C., partially mobile component, bitumen 20/30 + additive
  pg2: 0.17
[22]; 30° C., signal fraction of rigid component, bitumen 20/30 + additive
  pg1: 0.38
[22]; [28]
  T2e1: 0.50 ms
  T2e2: 2.53 ms
  T2g1: 0.017 ms
  T2g2: 0.054 ms
  pe1: 0.48
  pe2: 0.35
  pg1: 0.09
  pg2: 0.074
[22]; 80° C.
  1/<1/T2e>: 0.76 ms
[22]; [29]
  T2e1: 0.21 ms
  T2e2: 4.76 ms
  T2e3: 25.72 ms
  pe1: 0.18
  pe2: 0.47
  pe3: 0.34
[22]; 140° C.
  1/<1/T2e>: 1.0 ms
[6]
  MSCR % Rec. (0.1 kPa): 5%
  MSCR % Rec. (1.6 kPa): 1%
  MSCR % Rec. (3.2 kPa): 0%
[1]
  MSCR % Rec. (0.1 kPa): 4%
  MSCR % Rec. (1.6 kPa): 1%
  MSCR % Rec. (3.2 kPa): 0%
[9]; [30]
  S-value [MPa] (flexural creep stiffness): 90 MPa
  m-value: 0.43
[9]; bitumen 20/30 + 5% compound
  S-value [MPa] (flexural creep stiffness): 90 MPa
  m-value: 0.44
[10]
  MSCR % Rec. (0.1 kPa): 5%
  MSCR % Rec. (1.6 kPa): 2%
  MSCR % Rec. (3.2 kPa): 0%
[11]
  η(135° C.) [mPas]: 850 mPas
[13]
  η(135° C.) [mPas]: 950 mPas
[14]
  SP [° C.]: 53.0 °C
[15]
  SP [° C.]: 50.0 °C
[16]
  SP [° C.]: 51.0 °C
[2]
  η(135° C.) [mPas]: 800 mPas
[3]
  SP [° C.] (softening point): 47.0 °C
[17]
  MSCR % Rec. (0.1 kPa): 7%
  MSCR % Rec. (1.6 kPa): 3%
  MSCR % Rec. (3.2 kPa): 1%
[19]; [23]
  tan δ: 80
[19]; [24]
  tan δ: 100
[19]; [25]
  tan δ: 80
[19]; [26]
  tan δ: 70
[21]
  η(135° C.) [mPas]: 700 mPas
